{"source": "paper PMC8617627", "about": "“Novel DYRK1A Inhibitor Rescues Learning and Memory Deficits in a Mouse Model of Down Syndrome” (Pharmaceuticals, 2021)", "assay_in_all_cases": "Kinase profile (33P ATP filter binding)", "type_in_all_cases": "biochemical", "key": {"Src": {"target": "Src (Homo sapiens, UniProt P12931)", "sequence (P12931 whole entry)": "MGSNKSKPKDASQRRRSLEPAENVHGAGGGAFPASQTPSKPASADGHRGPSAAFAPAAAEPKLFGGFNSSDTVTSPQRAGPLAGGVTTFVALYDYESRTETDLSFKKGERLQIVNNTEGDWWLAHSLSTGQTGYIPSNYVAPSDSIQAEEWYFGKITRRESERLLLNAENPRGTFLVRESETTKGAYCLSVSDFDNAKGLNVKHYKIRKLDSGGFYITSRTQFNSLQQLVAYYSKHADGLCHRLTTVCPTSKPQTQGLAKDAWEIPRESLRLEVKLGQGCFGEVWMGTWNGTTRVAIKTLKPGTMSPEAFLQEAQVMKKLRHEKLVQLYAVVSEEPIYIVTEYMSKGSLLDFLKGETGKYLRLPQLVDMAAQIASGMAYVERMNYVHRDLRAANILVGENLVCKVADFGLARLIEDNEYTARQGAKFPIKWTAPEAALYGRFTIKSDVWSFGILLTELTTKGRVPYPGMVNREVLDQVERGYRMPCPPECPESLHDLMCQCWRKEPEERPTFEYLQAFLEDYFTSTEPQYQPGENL", "conditions": "read-out: Remaining protein kinase activity"}, "CSK": {"target": "CSK (Homo sapiens, UniProt P41240)", "sequence (P41240 whole entry)": "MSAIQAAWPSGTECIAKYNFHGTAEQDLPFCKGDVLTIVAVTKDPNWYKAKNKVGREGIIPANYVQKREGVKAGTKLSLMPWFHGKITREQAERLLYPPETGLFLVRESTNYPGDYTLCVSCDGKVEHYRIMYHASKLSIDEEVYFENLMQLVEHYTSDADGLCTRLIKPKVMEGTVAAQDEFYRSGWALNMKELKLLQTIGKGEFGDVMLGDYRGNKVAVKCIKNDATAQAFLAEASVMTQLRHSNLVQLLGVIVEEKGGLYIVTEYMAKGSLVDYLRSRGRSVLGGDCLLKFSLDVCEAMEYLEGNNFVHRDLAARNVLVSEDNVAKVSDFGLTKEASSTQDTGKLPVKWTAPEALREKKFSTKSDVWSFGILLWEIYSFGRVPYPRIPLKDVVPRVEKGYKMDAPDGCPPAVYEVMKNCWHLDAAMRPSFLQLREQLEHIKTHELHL"}, "MKK1": {"target": "MKK1 (Homo sapiens, UniProt Q02750)", "sequence (Q02750 whole entry, species assumed)": "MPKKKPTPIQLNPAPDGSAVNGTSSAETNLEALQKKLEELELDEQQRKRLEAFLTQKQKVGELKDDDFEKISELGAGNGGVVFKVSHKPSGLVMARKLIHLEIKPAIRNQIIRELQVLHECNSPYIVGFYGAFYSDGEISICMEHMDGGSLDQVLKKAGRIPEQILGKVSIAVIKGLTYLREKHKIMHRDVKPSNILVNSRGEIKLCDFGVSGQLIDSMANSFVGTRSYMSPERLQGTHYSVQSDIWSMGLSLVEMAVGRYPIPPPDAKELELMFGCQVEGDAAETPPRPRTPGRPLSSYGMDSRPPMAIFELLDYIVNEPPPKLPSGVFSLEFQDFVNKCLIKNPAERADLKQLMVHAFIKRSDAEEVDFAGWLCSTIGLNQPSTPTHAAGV", "conditions": "read-out: Remaining protein kinase activity"}, "RIPK2": {"target": "RIPK2 (Homo sapiens, UniProt O43353)", "sequence (O43353 whole entry)": "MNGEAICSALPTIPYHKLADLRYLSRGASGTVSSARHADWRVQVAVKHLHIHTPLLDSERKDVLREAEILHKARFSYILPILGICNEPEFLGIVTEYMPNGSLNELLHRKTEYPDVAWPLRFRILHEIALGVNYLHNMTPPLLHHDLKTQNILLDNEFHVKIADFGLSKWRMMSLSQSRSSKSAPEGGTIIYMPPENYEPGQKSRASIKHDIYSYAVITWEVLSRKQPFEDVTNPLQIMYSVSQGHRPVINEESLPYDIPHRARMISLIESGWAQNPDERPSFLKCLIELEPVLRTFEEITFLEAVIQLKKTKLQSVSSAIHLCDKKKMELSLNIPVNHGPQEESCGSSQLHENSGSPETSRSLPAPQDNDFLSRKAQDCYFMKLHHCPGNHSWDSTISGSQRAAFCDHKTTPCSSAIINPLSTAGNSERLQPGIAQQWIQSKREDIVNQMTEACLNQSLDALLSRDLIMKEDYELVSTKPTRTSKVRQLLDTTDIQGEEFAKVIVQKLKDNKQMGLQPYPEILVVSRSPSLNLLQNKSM", "conditions": "read-out: Remaining protein kinase activity"}, "SYK": {"target": "SYK (Homo sapiens, UniProt P43405)"}, "PKCz": {"target": "T1, PKCz (Homo sapiens, UniProt Q05513)", "T1 sequence (Q05513 1-592)": "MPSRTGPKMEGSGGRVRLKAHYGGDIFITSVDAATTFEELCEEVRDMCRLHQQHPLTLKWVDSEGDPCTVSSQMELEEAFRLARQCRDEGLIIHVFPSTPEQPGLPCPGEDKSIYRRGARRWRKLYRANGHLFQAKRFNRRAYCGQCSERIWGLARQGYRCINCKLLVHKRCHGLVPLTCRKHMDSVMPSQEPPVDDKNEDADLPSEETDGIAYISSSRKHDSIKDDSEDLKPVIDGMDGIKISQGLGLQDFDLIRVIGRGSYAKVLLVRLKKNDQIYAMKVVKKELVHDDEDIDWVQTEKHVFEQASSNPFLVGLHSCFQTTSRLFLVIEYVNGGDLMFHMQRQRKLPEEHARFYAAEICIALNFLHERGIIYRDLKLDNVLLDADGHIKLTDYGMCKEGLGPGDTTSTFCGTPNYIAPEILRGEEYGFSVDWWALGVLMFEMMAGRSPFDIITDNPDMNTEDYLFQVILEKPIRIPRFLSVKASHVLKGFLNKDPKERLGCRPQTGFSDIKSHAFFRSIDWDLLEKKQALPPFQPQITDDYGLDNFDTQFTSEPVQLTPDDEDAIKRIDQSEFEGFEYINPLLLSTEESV", "conditions": "read-out: Remaining protein kinase activity"}, "SGK1": {"target": "T2, SGK1 (Homo sapiens, UniProt O00141)", "T2 sequence (O00141 1-431)": "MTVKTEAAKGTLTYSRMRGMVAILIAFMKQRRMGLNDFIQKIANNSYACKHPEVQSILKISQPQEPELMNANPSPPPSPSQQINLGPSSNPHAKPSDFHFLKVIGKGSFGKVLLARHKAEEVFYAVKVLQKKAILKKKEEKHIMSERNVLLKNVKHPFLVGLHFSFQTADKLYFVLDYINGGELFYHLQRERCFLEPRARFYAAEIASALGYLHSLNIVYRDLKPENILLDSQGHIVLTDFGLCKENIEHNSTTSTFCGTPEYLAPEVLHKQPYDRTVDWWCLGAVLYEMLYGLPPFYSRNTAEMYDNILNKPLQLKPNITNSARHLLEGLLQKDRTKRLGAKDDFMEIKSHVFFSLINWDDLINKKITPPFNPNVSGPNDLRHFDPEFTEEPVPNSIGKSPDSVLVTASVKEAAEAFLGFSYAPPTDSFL", "conditions": "read-out: Remaining protein kinase activity"}, "PAK4": {"target": "PAK4 (Homo sapiens, UniProt O96013)", "sequence (O96013 whole entry)": "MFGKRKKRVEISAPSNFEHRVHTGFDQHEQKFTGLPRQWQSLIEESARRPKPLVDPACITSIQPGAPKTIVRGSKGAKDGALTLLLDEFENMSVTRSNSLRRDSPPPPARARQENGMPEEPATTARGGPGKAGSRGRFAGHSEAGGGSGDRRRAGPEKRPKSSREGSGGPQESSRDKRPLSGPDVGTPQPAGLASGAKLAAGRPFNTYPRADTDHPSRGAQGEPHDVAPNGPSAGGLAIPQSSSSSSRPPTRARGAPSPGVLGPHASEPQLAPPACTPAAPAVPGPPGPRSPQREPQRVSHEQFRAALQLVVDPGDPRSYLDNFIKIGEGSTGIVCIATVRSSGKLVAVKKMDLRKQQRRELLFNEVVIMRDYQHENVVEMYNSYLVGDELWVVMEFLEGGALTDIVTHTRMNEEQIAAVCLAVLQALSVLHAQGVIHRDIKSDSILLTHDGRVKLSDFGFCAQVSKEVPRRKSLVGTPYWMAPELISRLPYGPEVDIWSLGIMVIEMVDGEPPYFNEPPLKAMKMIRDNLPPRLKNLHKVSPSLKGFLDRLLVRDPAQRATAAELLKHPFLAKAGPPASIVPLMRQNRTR", "conditions": "read-out: Remaining protein kinase activity"}, "CDK2-Cyclin A": {"target": "CDK2-Cyclin A (Homo sapiens, UniProt P24941)"}, "TAK1": {"target": "T3, TAK1 (Homo sapiens, UniProt O43318)", "T3 sequence (O43318 1-303 limits assumed)": "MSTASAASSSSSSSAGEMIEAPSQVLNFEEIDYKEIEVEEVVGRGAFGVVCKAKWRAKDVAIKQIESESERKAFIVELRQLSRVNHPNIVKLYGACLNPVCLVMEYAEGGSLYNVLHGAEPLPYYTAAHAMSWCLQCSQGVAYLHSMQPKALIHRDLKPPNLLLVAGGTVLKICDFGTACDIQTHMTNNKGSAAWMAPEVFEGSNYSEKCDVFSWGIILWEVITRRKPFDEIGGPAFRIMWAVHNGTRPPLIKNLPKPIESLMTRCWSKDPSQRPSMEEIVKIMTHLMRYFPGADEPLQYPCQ", "conditions": "read-out: Remaining protein kinase activity"}, "PDGFRA": {"target": "PDGFRA (Homo sapiens, UniProt P16234)", "sequence (P16234 24-1089)": "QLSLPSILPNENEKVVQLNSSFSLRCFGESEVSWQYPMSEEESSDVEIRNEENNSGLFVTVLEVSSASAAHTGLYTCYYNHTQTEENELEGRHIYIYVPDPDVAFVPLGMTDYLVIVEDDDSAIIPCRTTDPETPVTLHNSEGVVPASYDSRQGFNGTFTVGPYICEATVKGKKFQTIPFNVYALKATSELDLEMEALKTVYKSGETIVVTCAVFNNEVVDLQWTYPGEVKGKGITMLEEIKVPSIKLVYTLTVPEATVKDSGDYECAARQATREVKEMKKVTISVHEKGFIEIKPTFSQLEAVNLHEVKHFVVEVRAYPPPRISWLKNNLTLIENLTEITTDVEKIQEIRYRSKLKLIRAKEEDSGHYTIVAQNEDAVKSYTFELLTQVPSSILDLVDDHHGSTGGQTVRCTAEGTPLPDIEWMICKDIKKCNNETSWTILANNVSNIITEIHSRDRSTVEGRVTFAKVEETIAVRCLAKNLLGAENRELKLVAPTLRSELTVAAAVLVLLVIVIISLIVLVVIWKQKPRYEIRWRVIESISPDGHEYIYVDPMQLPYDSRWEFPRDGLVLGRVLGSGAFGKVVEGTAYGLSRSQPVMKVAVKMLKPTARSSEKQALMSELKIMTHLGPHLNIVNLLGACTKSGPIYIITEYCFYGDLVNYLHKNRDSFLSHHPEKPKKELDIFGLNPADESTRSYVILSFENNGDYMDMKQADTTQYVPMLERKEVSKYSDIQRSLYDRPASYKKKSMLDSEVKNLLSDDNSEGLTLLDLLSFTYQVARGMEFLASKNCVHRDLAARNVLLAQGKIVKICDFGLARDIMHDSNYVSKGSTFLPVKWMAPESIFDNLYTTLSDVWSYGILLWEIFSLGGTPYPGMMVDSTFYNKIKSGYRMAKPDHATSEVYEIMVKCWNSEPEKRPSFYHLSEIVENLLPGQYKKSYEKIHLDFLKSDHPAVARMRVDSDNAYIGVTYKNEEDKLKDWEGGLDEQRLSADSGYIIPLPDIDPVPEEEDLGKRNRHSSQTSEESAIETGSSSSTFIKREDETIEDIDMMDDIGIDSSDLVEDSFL", "conditions": "read-out: Remaining protein kinase activity"}}, "note": "Where two headings read alike, the source gives them in different places.", "data": [{"smiles": "COc1ccc2sc(-c3cncc(NC(C)=O)c3)nc2c1", "note": "[PST-001, N-(5-(5-Methoxybenzo[d]thiazol-2-yl)pyridin-3-yl)acetamide]", "values": [{"measurement": "remaining activity at 1 µM", "setting": "Src", "result": 100, "unit": "%"}, {"measurement": "remaining activity at 100 µM", "setting": "Src", "result": 106, "unit": "%"}, {"measurement": "Remaining protein kinase activity", "setting": "CSK; 1 μM", "result": 121, "unit": "%"}, {"measurement": "Remaining protein kinase activity", "setting": "CSK; 100 μM", "result": 126, "unit": "%"}, {"measurement": "remaining activity at 1 µM", "setting": "MKK1", "result": 117, "unit": "%"}, {"measurement": "remaining activity at 100 µM", "setting": "MKK1", "result": 135, "unit": "%"}, {"measurement": "remaining activity at 1 µM", "setting": "RIPK2", "result": 109, "unit": "%"}, {"measurement": "Remaining protein kinase activity", "setting": "SYK; 1 μM", "result": 112, "unit": "%"}, {"measurement": "Remaining protein kinase activity", "setting": "SYK; 100 μM", "result": 58, "unit": "%"}, {"measurement": "remaining activity at 1 µM", "setting": "PKCz", "result": 119, "unit": "%"}, {"measurement": "remaining activity at 100 µM", "setting": "PKCz", "result": 124, "unit": "%"}, {"measurement": "remaining activity at 1 µM", "setting": "SGK1", "result": 102, "unit": "%"}, {"measurement": "remaining activity at 100 µM", "setting": "SGK1", "result": 82, "unit": "%"}, {"measurement": "remaining activity at 1 µM", "setting": "PAK4", "result": 116, "unit": "%"}, {"measurement": "remaining activity at 100 µM", "setting": "PAK4", "result": 98, "unit": "%"}, {"measurement": "Remaining protein kinase activity", "setting": "CDK2-Cyclin A; 1 μM", "result": 110, "unit": "%"}, {"measurement": "Remaining protein kinase activity", "setting": "CDK2-Cyclin A; 100 μM", "result": 69, "unit": "%"}, {"measurement": "remaining activity at 1 µM", "setting": "TAK1", "result": 48, "unit": "%"}, {"measurement": "remaining activity at 100 µM", "setting": "TAK1", "result": 63, "unit": "%"}, {"measurement": "remaining activity at 1 µM", "setting": "PDGFRA", "result": 100, "unit": "%"}, {"measurement": "remaining activity at 100 µM", "setting": "PDGFRA", "result": 73, "unit": "%"}]}, {"smiles": "COc1ccc2sc(-c3cncc(N)c3)nc2c1", "note": "[compound 1, 5-(5-Methoxybenzo[d]thiazol-2-yl)pyridin-3-amine]", "values": [{"measurement": "remaining activity at 1 µM", "setting": "Src; Src, 1 μM", "result": 123, "unit": "%"}, {"measurement": "remaining activity at 100 µM", "setting": "Src; Src, 100 μM", "result": 42, "unit": "%"}, {"measurement": "Remaining protein kinase activity", "setting": "CSK; 1 μM", "result": 116, "unit": "%"}, {"measurement": "Remaining protein kinase activity", "setting": "CSK; 100 μM", "result": 78, "unit": "%"}, {"measurement": "remaining activity at 1 µM", "setting": "MKK1; MKK1, 1 μM", "result": 101, "unit": "%"}, {"measurement": "remaining activity at 100 µM", "setting": "MKK1; MKK1, 100 μM", "result": 84, "unit": "%"}, {"measurement": "remaining activity at 1 µM", "setting": "RIPK2; RIPK2, 1 μM", "result": 104, "unit": "%"}, {"measurement": "remaining activity at 100 µM", "setting": "RIPK2; RIPK2, 100 μM", "result": 20, "unit": "%"}, {"measurement": "Remaining protein kinase activity", "setting": "SYK; 1 μM", "result": 113, "unit": "%"}, {"measurement": "Remaining protein kinase activity", "setting": "SYK; 100 μM", "result": 38, "unit": "%"}, {"measurement": "remaining activity at 1 µM", "setting": "PKCz; PKCz, 1 μM", "result": 106, "unit": "%"}, {"measurement": "remaining activity at 100 µM", "setting": "PKCz; PKCz, 100 μM", "result": 128, "unit": "%"}, {"measurement": "remaining activity at 1 µM", "setting": "SGK1; SGK1, 1 μM", "result": 99, "unit": "%"}, {"measurement": "remaining activity at 100 µM", "setting": "SGK1; SGK1, 100 μM", "result": 62, "unit": "%"}, {"measurement": "remaining activity at 1 µM", "setting": "PAK4; PAK4, 1 μM", "result": 109, "unit": "%"}, {"measurement": "remaining activity at 100 µM", "setting": "PAK4; PAK4, 100 μM", "result": 54, "unit": "%"}, {"measurement": "Remaining protein kinase activity", "setting": "CDK2-Cyclin A; 1 μM", "result": 96, "unit": "%"}, {"measurement": "Remaining protein kinase activity", "setting": "CDK2-Cyclin A; 100 μM", "result": 19, "unit": "%"}, {"measurement": "remaining activity at 1 µM", "setting": "TAK1; TAK1, 1 μM", "result": 70, "unit": "%"}, {"measurement": "remaining activity at 100 µM", "setting": "TAK1; TAK1, 100 μM", "result": 6, "unit": "%"}, {"measurement": "remaining activity at 1 µM", "setting": "PDGFRA; PDGFRA, 1 μM", "result": 101, "unit": "%"}, {"measurement": "remaining activity at 100 µM", "setting": "PDGFRA; PDGFRA, 100 μM", "result": 26, "unit": "%"}]}]}
